This passage reports IC50 and IC90 results from PubChem BioAssay AID449762 (Southern Research Specialized Biocontainment Screening …, 2010).

Records with an inconclusive call do not appear.

In this assay the test system is M. tuberculosis H37Rv growth inhibition, 7H9 media. Nature of the assay: M. tuberculosis growth inhibition, HTS (AID 449762).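 On all read-outs here: bacterial growth assessed after seven days of incubation.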 The settings on record: for IC90: measured here: IC90 growth inhibition.

With `COC(=O)CCc1sc(Nc2ccc(Br)cc2)nc1-c1ccc(OC)cc1`, the IC50 – broadly, the midpoint of a concentration-inhibition curve – was 26 µM and the IC90 – broadly, the concentration at which the effect reaches the 90% level – amounted to 44.1 µM.

Regarding `Fc1nc(F)c(F)c(NCCCNc2c(F)c(F)nc(F)c2F)c1F`, the IC50 was 37.7 µM and the 90% effect concentration (IC90) was greater than 100 µM.

For the molecule `CCOC(=O)C1CCN(C(=O)CSCc2nc(-c3ccc(OCC)cc3)oc2C)CC1`, the IC50 is 42.9 µM and the IC90 was determined as 48.1 µM.

The molecule `CCCSC1=C(C#N)C(c2ccc(Cl)cc2Cl)CC(=O)N1` (centres undefined) displayed an IC90 greater than 25 µM.

Turning to `Cc1ccccc1N1CCN(c2ncnc3c2cnn3Cc2ccc(Cl)cc2)CC1`, the IC50 is 5.12 µM and the IC90 amounted to 8.72 µM.

For the molecule `c1ccc(-c2nc3c(ccc4ccccc43)[nH]2)nc1`, the IC50 is 6.75 µM and the IC90 turned out to be 20.3 µM.

Regarding `Oc1ccc(N=Nc2n[nH]c(-c3ccc(Cl)cc3)n2)cc1`, the half-maximal inhibitory concentration (IC50) is 11.8 µM and the IC90 amounted to 59 µM.

Turning to `CCOC(=O)C(C)Oc1ccc(OCc2ccccc2)cc1` (centres undefined), the IC50 is 4.2 µM and the IC90 came out at 10.9 µM.

`O=C(Nc1nnc(-c2ccccc2)o1)c1cc(-c2cccs2)nc2ccccc12`: the IC50 was 0.89 µM and the IC90 turned out to be 2.25 µM.

For the molecule `Cc1ccc2c(c1)C1C[N+](C)(CC(=O)c3ccc(Cl)cc3Cl)CCC1N2C(=O)c1ccc(F)cc1` (centres undefined), the half-inhibitory concentration (IC50) is 23.9 µM and the IC90 came to 27.1 µM.

`CCc1cc(/C(Cc2ccccn2)=N\Nc2ccccc2)c(O)cc1O`: the IC50 was 60.5 µM and the IC90 was 77.4 µM.

For the molecule `CN1/C(=C\C(=O)COC(=O)c2ccc([N+](=O)[O-])o2)C(C)(C)c2ccccc21`, the half-inhibitory concentration (IC50) is 1.04 µM and the IC90 was 3.54 µM.

On to `CCC(C)c1ccc2oc(-c3ccc(NC(=O)c4ncn[nH]4)cc3)nc2c1` (centres undefined), for which the IC50 is 1.59 µM and the IC90 was found to be 7.52 µM.

Regarding `CC(C)OC(=O)c1ccc(COC(=O)c2cnccn2)cc1`, the IC50 is 7.68 µM and the IC90 is greater than 100 µM.

On to `Cc1ccccc1Cn1ccc(=NCc2ccccc2)cc1`, for which the IC50 was 4.39 µM and the IC90 was 12 µM.

With `CCOC(=O)c1c(NC(=O)C(NCCN(C)C)c2ccccc2)sc2c1CCCC2` (centres undefined), the half-inhibitory concentration (IC50) was 4.75 µM and the 90% effect concentration (IC90) stood at 10.1 µM.

For `Cc1nn(Cc2ccccc2Cl)c2sc(C(=O)NCCCn3ccnc3)cc12`, the IC50 is 37.5 µM and the IC90 worked out at 49.5 µM.

As for `Cc1ccc2c(c1)nnn2C1CCN(CC(=O)N2CCN(c3ccc(F)cc3)CC2)CC1`, the IC50 was 35.3 µM and the IC90 was greater than 100 µM.

Regarding `Cc1cc(Nc2cc(Cl)nc(Sc3ccc(NC(=O)C4CC4)cc3)n2)n[nH]1`, the IC50 was 26.2 µM and the IC90 turned out to be 45.1 µM.

In the case of `COC(=O)c1ccc(NC(=S)NC(=O)C2CCC2)cc1`, the IC50 is 41.9 µM and the 90% effect concentration (IC90) was determined as 55.9 µM.

With `CC(NCCCOc1cccc2ccccc12)c1ccccc1` (centres undefined), the IC50 is 22.6 µM and the IC90 amounted to 31.3 µM.

`CC(=O)Oc1ccc(/C=N\NC(=O)c2cc3c(ccc4ccccc43)o2)cc1`: the IC50 was 58.5 µM and the IC90 was greater than 100 µM.

For the molecule `C=CCc1c(C)nc(SC)nc1Nc1ccc(C(C)=O)cc1`, the IC50 was 23.3 µM and the IC90 was 32.6 µM.

Turning to `COc1ccccc1C(CNC(=O)C(C)(C)Oc1ccc(Cl)cc1)N1CCCC1` (centres undefined), the 50% inhibitory concentration (IC50) was 23.5 µM and the IC90 stood at 26.5 µM.

`CC(C)(C)C(=O)NC(=S)NNC(=O)c1sc2ccccc2c1Cl`: the IC50 is 23.8 µM and the IC90 was greater than 100 µM.

Take `O=S(Cc1ccc(Br)cc1)Cc1nnc(SCc2ccc(Cl)cc2)n1-c1ccccc1` (centres undefined): the half-inhibitory concentration (IC50) is 91.1 µM and the IC90 is greater than 100 µM.

Consider `Cc1cc([N+](=O)[O-])c2ccccc2[n+]1[O-]`, for which the IC50 was 5.76 µM and the IC90 is 9.62 µM.

As for `CCCCN(CCCC)CCC(O)c1cc2c(Cl)cc(Cl)cc2c2cc(C(F)(F)F)ccc12` (centres undefined), the IC50 is 16.6 µM and the IC90 came out at 25.7 µM.

On to `CC1CCCCC1NC(=O)c1ccc2c(c1)[nH]c(=O)n2C1CCCC1` (centres undefined), for which the IC50 was 5.15 µM and the 90% effect concentration (IC90) is 8.42 µM.

For the molecule `CC(O)CNc1nc2ccccc2n1-c1ncnc2sc3c(c12)CCC3` (centres undefined), the IC50 was 27.6 µM and the IC90 was determined as 36.6 µM.

As to `COC(=O)CSc1nnc(CNc2ccc(Cl)cc2)n1-c1ccccc1`, the IC50 is 12.7 µM and the IC90 amounted to 37.4 µM.

`COC(=O)C1CC(=O)N(c2ccc(OCc3ccccc3Cl)cc2)C1` (centres undefined): the IC50 was 0.52 µM and the IC90 was determined as 3.52 µM.

As for `Cc1cc(N2CCN(c3ccc(C(F)(F)F)cc3[N+](=O)[O-])CC2)c2ccccc2n1`, the IC50 was 21.4 µM and the IC90 stood at 23.7 µM.

Turning to `N#C/C(N=Nc1ccccc1O)=N\Nc1ccccc1O`, the IC50 is less than 0.2 µM and the 90% effect concentration (IC90) was 1.65 µM.

Take `CCOP(=O)(OCC)/C(=C/N1CCCCC1)NC(=O)c1ccccc1`: the IC50 was 81.4 µM and the concentration for an effect of 90% (IC90) is greater than 100 µM.

For `CCCCC(=O)/C=C/n1c(=S)oc2ccccc21`, the IC50 was 28.2 µM and the concentration for an effect of 90% (IC90) was greater than 100 µM.

Turning to `CCOC(=O)COc1ccc(/C=C2\NC(=S)N(CC)C2=O)cc1`, the IC50 was 1.17 µM and the IC90 stood at 8.47 µM.

Regarding `c1ccc(-c2cn3c(n2)CCc2ccc4cccnc4c2-3)cc1`, the IC50 was 8.12 µM and the IC90 was 41.2 µM.

With `Nc1c2c(nc3ccn(Cc4ccccc4)c(=O)c13)CCC2`, the IC50 was 13.7 µM and the IC90 is 33.6 µM.

For `COC(=O)Cn1nc(-c2ccccc2)c2cc(Cl)ccc21`, the IC50 was 8.72 µM and the IC90 stood at 51.7 µM.

Turning to `O=C1C(=O)c2ccccc2-c2ccccc21`, the IC50 is 6.31 µM and the IC90 worked out at 6.91 µM.

Regarding `CCCCn1cnc2cc(NCc3cccc(OC)c3O)ccc21`, the IC50 was 80.2 µM and the 90% effect concentration (IC90) is greater than 100 µM.

For `CCC1CSC(Nc2ccc(C(=O)/C=C/c3cccc(C)c3)cc2)=N1` (centres undefined), the IC50 is 18.9 µM and the 90% effect concentration (IC90) was 27.3 µM.

For the molecule `CC(NC(=O)CCl)c1ccc(Cl)c(Cl)c1` (centres undefined), the IC50 is 1.17 µM and the IC90 came out at 2.91 µM.

For `CC1(C)c2cc(Cl)ccc2-n2c1cc(O)c(-c1ccccc1)c2=O`, the IC50 was 4.43 µM and the concentration for an effect of 90% (IC90) was found to be 10.8 µM.

Turning to `Cn1ccnc1C(=O)C1CCCN(Cc2cn[nH]c2-c2ccc(-c3ccccc3)cc2)C1` (centres undefined), the IC50 is 76 µM and the IC90 is 91.7 µM.

Consider `Cc1noc(C)c1COc1ccc(C(=O)OCC(=O)NC23CC4CC(CC(C4)C2)C3)cc1`, for which the IC50 is 8.33 µM and the IC90 was determined as 24.5 µM.

Turning to `Oc1ccc(/C=N/NC(=S)N2CCOCC2)cc1`, the half-inhibitory concentration (IC50) is 4.2 µM and the IC90 was found to be 6.19 µM.

As for `O=C(/C=C/c1ccco1)Oc1ccc(C(=S)N2CCOCC2)cc1`, the IC50 is 38.7 µM and the IC90 is greater than 100 µM.

`Cc1ccc(C#CC[N+]2(CC#Cc3ccc(C)cc3)CCCCC2)cc1`: the half-maximal inhibitory concentration (IC50) is 12.7 µM and the 90% effect concentration (IC90) came out at 14.4 µM.

With `O=C1C(Br)=Cc2cccc3cccc1c23`, the IC50 was less than 0.2 µM and the IC90 was less than 0.2 µM.

Consider `S=C(Nc1ccc(Cl)cc1)Nc1cccc2cnccc12`, for which the IC50 was 4.42 µM and the IC90 was 5.24 µM.

For `O=S1(=O)CCC(N=Cc2ccc(-c3ccc(Cl)cc3)o2)C1` (centres undefined), the IC50 is 54.8 µM and the IC90 was greater than 100 µM.

Regarding `CN(CCCCCCCCCCN(C)C(=O)Oc1cccc([N+](C)(C)C)c1)C(=O)Oc1cccc([N+](C)(C)C)c1`, the IC50 is 1.49 µM and the IC90 amounted to 4.04 µM.

Molecule `COC(=O)C(Cc1ccc(OC(=O)c2ccc(C(F)(F)F)cc2)cc1)N1Cc2ccccc2C1=O` (centres undefined) displayed an IC90 greater than 100 µM.

As to `NC1=NC[C@H](Cc2ccc(O)cc2)N1CCc1cccc2ccccc12`, the IC50 is 21.6 µM and the IC90 was 24.1 µM.

Regarding `Cc1noc2ncnc(Sc3ccc(Cl)cc3)c12`, the IC50 is 82.9 µM and the IC90 was greater than 100 µM.

With `CSCCOC(=O)COc1ccc(/C=N/NC(=O)c2c(Cl)cnn2C)cc1`, the IC50 was 9.04 µM and the IC90 came out at 22.6 µM.

With `CCOC(=O)CSc1cc(=O)n(C)c2cc(Cl)ccc12`, the IC50 was less than 0.2 µM and the IC90 was found to be 73.9 µM.

Turning to `CCN(CC)CCOC(=O)c1ccc(N/C=C(/C#N)c2nc(-c3ccc4c(c3)OCO4)cs2)cc1`, the half-maximal inhibitory concentration (IC50) is 28.4 µM and the IC90 worked out at 53.3 µM.

For `CCN(CC)C(=O)c1cc([N+](=O)[O-])cc2c1-c1ccc([N+](=O)[O-])cc1C2=C(C#N)C#N`, the IC50 was 21.3 µM and the 90% effect concentration (IC90) worked out at 23.8 µM.

Consider `O=C1c2cccc3c([N+](=O)[O-])ccc(c23)C(=O)N1O`, for which the IC50 was 8.11 µM and the 90% effect concentration (IC90) came out at 13.8 µM.

Regarding `CC(C)(C)NC(=O)[C@@H]1C[C@@H]2CCCC[C@@H]2CN1C[C@@H](O)[C@H](Cc1ccccc1)NC(=O)[C@H](CC(N)=O)NC(=O)c1ccc2ccccc2n1`, the IC50 is 40.1 µM and the IC90 turned out to be 51.9 µM.

Consider `COc1ccc(-c2oc3cccnc3c2/C=C/c2ccc(OC)c(OC)c2)cc1`, for which the IC50 was 51.3 µM and the IC90 was greater than 100 µM.

Regarding `O=C(OCc1ccc([N+](=O)[O-])cc1)c1cc2ccccc2oc1=O`, the IC50 is 7.82 µM and the IC90 was found to be 23.6 µM.

Consider `COc1ccc(-n2nnnc2S(=O)(=O)CC(=O)N2CCCCC2)cc1`, for which the IC50 is 12.7 µM and the IC90 is 27 µM.

`Cc1cc(=O)n2[nH]c(Nc3cccc(Cl)c3)nc2n1`: the IC50 is 20.4 µM and the IC90 came out at 33 µM.

Consider `CCOc1ccc(NC(=O)CSc2cn[nH]n2)cc1`, for which the IC50 was 57.1 µM and the IC90 was greater than 100 µM.

In the case of `COc1cc2ccccc2cc1C(=O)Nc1ccc(Cc2ccncc2)cc1`, the IC50 is 2.26 µM and the IC90 came out at 16.8 µM.

As for `O=[N+]([O-])c1ccc(Sc2cc[n+]([O-])c3ccccc23)c([N+](=O)[O-])c1`, the IC50 was 16.1 µM and the IC90 stood at 24.3 µM.

For `COC(=O)CCn1c(C)cc(C(=O)COc2ccccc2C(N)=O)c1C`, the IC50 was 10.2 µM and the IC90 is 15.8 µM.

Consider `Cc1ccc(C(=O)Nc2cccc(C(F)(F)F)c2)cc1Nc1ncnc2nc[nH]c12`, for which the IC50 was 50 µM and the IC90 was greater than 100 µM.

As for `COc1ccc(C2CC2/C(C)=N/OC(=O)c2ccc(F)cc2)cc1` (centres undefined), the IC50 is 13.7 µM and the IC90 worked out at 51.6 µM.
